Experiment [1] concerns the target Sigma non-opioid intracellular receptor 1 (Rattus norvegicus, UniProt Q9R0C9). Kind of experiment: Displacement of [3H]-pentazocine from rat brain sigma1 receptor by PDSP assay. Background: Displacement assays read how much labelled ligand stays bound in the presence of the test substance.
The target in experiment [2] is T1, Sigma intracellular receptor 2 (Rattus norvegicus, UniProt Q5U3Y7).
T1 sequence (Q5U3Y7 whole entry): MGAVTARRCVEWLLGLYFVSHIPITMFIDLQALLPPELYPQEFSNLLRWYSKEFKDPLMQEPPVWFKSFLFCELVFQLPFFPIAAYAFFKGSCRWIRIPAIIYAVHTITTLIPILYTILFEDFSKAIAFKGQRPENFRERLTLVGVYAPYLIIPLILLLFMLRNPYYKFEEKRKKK
The experiment in a line: Displacement of [3H]DTG from rat brain sigma2 receptor by PDSP assay.

Experiment [3] has as its target T2, Sigma intracellular receptor 2 (Rattus norvegicus) (UniProt Q5U3Y7).
T2 sequence (whole entry): T1 sequence (Q5U3Y7 whole entry)
The experiment in a line: Displacement of [3H]DTG from rat brain sigma2 receptor at 10 uM by PDSP assay.

The values below come from ChEMBL document CHEMBL4425114, “Development of Novel Alkoxyisoxazoles as Sigma-1 Receptor Antagonists with Antinociceptive Efficacy” (J Med Chem, 2016).

As usually defined, the Ki is a measure of affinity in units of concentration, obtained from inhibition or displacement. The inhibition is the percentage by which the read-out fell short of the control. A high value points to a strong effect.

Sequence of Sigma non-opioid intracellular receptor 1 (Q9R0C9 whole entry): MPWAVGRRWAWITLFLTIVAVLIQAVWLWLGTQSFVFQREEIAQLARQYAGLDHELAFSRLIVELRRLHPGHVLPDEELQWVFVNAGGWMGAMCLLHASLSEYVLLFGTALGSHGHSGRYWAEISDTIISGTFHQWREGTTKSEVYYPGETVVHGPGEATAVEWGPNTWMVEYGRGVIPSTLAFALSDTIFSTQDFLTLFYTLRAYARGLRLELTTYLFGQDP

Take `c1ccc(OCc2cc(OC[C@H]3CCCN3)no2)cc1`: the values for the Ki in experiment [1] and in experiment [2] were 37.4 nM and 508 nM, respectively.
`O=C(c1cc(OC[C@@H]2CCCN2)no1)N1CCc2ccccc21`: the inhibition in experiment [3] is less than 50%. Moreover, the inhibition constant Ki in experiment [1] was 13.9 nM; in experiment [2] it was greater than 10000 nM.
With `c1ccc(OCc2cc(OCC3CCNCC3)no2)cc1`, the results for the Ki in experiment [1] and in experiment [2] were 356 nM and 284 nM, respectively.
For `c1ccc2cc(OCc3cc(OC[C@@H]4CCCN4)no3)ccc2c1` the same measures were 36.6 nM and 153 nM.
For `CN1CCN(c2cc(COc3ccccc3)on2)CC1` the same measures were 63.9 nM and 2200 nM.
In the case of `c1ccc(OCc2cc(OCCN3CCOCC3)no2)cc1`, the inhibition in experiment [3] was less than 50%. Further, the Ki in experiment [1] was 403 nM; in experiment [2] it was greater than 10000 nM.
`COc1ccc(OCc2cc(OC[C@@H]3CCCN3)no2)cc1`: the Ki turned out to be 210 nM in experiment [1] and 675 nM in experiment [2].
As for `Clc1ccc(OCc2cc(OC[C@@H]3CCCN3)no2)cc1`, the Ki in experiment [1] turned out to be 13 nM; in experiment [2] it was 139 nM.
For the compound `CCN(C)CCOc1cc(COc2ccccc2)on1`, the Ki in experiment [1] turned out to be 18.4 nM; in experiment [2] it was 820 nM.
`CN(CCOc1cc(COc2cccc(F)c2)on1)C1CCCCC1`: the Ki was 0.5 nM in experiment [1] and 24.5 nM in experiment [2].
On to `Fc1ccc(OCc2cc(OC[C@@H]3CCCN3)no2)cc1`, for which the figures for the Ki in experiment [1] and in experiment [2] were 4.4 nM and 471 nM, respectively.
With `CNCCOc1cc(COc2ccccc2)on1`, the inhibition in experiment [3] is less than 50%. The Ki in experiment [1] is 80.8 nM; in experiment [2], greater than 10000 nM.
In the case of `c1ccc(SCc2cc(OC[C@@H]3CCCN3)no2)cc1`, the Ki in experiment [1] turned out to be 65.4 nM; in experiment [2], 1030 nM.
In experiment [3], `COc1cccc(OCc2cc(OC[C@@H]3CCCN3)no2)c1` gave an inhibition of less than 50%. In addition, the Ki in experiment [1] was 31.1 nM; in experiment [2], greater than 10000 nM.
With `CN(CCOc1cc(COc2cccc(F)c2)on1)CC1CC1`, the Ki in experiment [1] came out at 0.9 nM; in experiment [2] it was 314 nM.
The compound `NCCCOc1cc(COc2ccccc2)on1` gave an inhibition in experiment [3] of less than 50%. Also, the Ki is 2310 nM in experiment [1] and greater than 10000 nM in experiment [2].
In the case of `Clc1cccc(OCc2cc(N3CCNCC3)no2)c1`, the Ki amounted to 36.5 nM in experiment [1] and 687 nM in experiment [2].
Regarding `FC(F)(F)c1ccc(OCc2cc(OC[C@@H]3CCCN3)no2)cc1`, the Ki in experiment [1] came to 13.3 nM; in experiment [2], 91.7 nM.
As to `CN1CCC[C@H]1COc1cc(COc2cccc(F)c2)on1`, the Ki in experiment [1] came to 0.7 nM; in experiment [2], 687 nM.
The matching figures for `Brc1ccc(OCc2cc(OC[C@@H]3CCCN3)no2)cc1`: 18.3 nM and 137 nM.
The matching figures for `CCNCCOc1cc(COc2ccccc2)on1`: 3.7 nM and 987 nM.
Take `CN(CCOc1cc(COc2ccccc2)on1)C1CCCC1`: the results for the Ki in experiment [1] and in experiment [2] were 0.5 nM and 73.7 nM, respectively.
For `CN1CCC[C@H]1COc1cc(COc2cccc(Cl)c2)on1` the same measures were 1.4 nM and 371 nM.
`CN(CCOc1cc(COc2cccc(Cl)c2)on1)CC1CC1`: the figures for the Ki in experiment [1] and in experiment [2] were 1.1 nM and 123 nM, respectively.
The matching figures for `Brc1cccc(OCc2cc(OC[C@@H]3CCCN3)no2)c1`: 3.2 nM and 85.9 nM.
Consider `FC(F)(F)c1cccc(OCc2cc(OC[C@@H]3CCCN3)no2)c1`, for which the results for the Ki in experiment [1] and in experiment [2] were 6.6 nM and 88 nM, respectively.
As to `CN(CCOc1cc(COc2cccc(Cl)c2)on1)C1CCCCC1`, the inhibitory constant (Ki) in experiment [1] came to 0.5 nM; in experiment [2], 15.1 nM.
For `CN1CCC(COc2cc(COc3ccccc3)on2)CC1` the same measures were 96.4 nM and 216 nM.
The matching figures for `CN1CCC[C@@H]1COc1cc(COc2ccccc2)on1`: 23.1 nM and 411 nM.
The matching figures for `Cc1cccc(OCc2cc(OC[C@@H]3CCCN3)no2)c1`: 4 nM and 341 nM.
